Among the data in patent US20240336608A1, “IL4I1 INHIBITORS AND METHODS OF USE” (Merck Sharp & Dohme LLC, priority 2023, published 2024) are EC50 values, retold here.

Usually EC50 stands for the concentration giving half of the maximal effect.

The assay has as its target T1, recombinant IL4I1 (Homo sapiens, UniProt Q96RQ9).
T1 construct: purchased R&D Systems 5684-AO-020
T1 sequence (Q96RQ9 22-567): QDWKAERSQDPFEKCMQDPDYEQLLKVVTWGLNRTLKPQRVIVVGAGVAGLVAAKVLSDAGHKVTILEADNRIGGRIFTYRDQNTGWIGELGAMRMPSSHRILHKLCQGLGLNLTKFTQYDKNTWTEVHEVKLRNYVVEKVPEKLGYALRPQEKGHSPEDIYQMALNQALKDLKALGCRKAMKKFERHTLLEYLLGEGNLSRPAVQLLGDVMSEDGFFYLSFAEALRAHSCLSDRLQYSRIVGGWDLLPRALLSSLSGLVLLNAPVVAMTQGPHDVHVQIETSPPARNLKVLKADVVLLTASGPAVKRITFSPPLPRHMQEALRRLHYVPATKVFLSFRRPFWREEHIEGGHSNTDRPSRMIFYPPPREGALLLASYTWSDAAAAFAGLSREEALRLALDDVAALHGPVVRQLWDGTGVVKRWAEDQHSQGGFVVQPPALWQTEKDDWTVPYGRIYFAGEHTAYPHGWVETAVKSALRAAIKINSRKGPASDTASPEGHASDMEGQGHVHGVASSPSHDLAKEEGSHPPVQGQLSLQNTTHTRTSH
Kind of assay: IL4I1 Enzymatic Assay (Amplex Red/HRP coupled detection of H2O2, fluorescence). The class given is biochemical. The following applies: 1 nM recombinant IL4I1; four-hour pre-incubation with compound; 1 mM each Phe, Tyr, Trp; ten-point titration. The gist of the method: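 H2O2 output was coupled to resorufin fluorescence (ex 544/em 590) via 0.05 mM Amplex Red and 1 U/mL HRP. Substrate: Phe, Tyr, Trp at 1 mM each; enzyme 1 nM, 4 h compound pre-incubation, 120 min reaction, pH 7.0 Hepes. EC50 by nonlinear four-parameter regression, 1:3 ten-point titration.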
Turning to `COC(=O)C(C)(C)n1cc(C(=O)NCc2nnc(-c3ccccc3)s2)nn1` [Example 255, methyl 2-methyl-2-(4-(((5-phenyl-1,3,4-thiadiazol-2-yl)methyl)carbamoyl)-1H-1,2,3-triazol-1-yl)propanoate], the concentration giving a half-maximal response (EC50) came out at 45 nM.

On to `CC[C@H](c1ccc(F)cc1)n1cc(C(=O)NCc2nnc(-c3ccccc3)s2)nn1` [Example 256, (R)-1-(1-(4-fluorophenyl)propyl)-N-((5-phenyl-1,3,4-thiadiazol-2-yl)methyl)-1H-1,2,3-triazole-4-carboxamide], for which the EC50 worked out at 3 nM.

With `CC[C@@H](c1ccc(F)cc1)n1cc(C(=O)NCc2nnc(-c3ccccc3)s2)nn1` [Example 257, (S)-1-(1-(4-fluorophenyl)propyl)-N-((5-phenyl-1,3,4-thiadiazol-2-yl)methyl)-1H-1,2,3-triazole-4-carboxamide], the EC50 worked out at 19 nM.

Take `Cc1cc(C(=O)NCc2nnc(-c3ccccc3)s2)ns1` [Example 260, 5-methyl-N-((5-phenyl-1,3,4-thiadiazol-2-yl)methyl)isothiazole-3-carboxamide]: the EC50 came to 69 nM.

With `Cc1ccc(-n2cc(C(=O)NCc3ccc(-c4ccccc4)nn3)nn2)c(C)n1` [Example 261, 1-(2,6-dimethylpyridin-3-yl)-N-((6-phenylpyridazin-3-yl)methyl)-1H-1,2,3-triazole-4-carboxamide], the EC50 turned out to be 25 nM.

Turning to `Cc1ccc(-n2cc(C(=O)NCc3nnc(-c4cccnc4)s3)nn2)c(C)n1` [Example 264, 1-(2,6-dimethylpyridin-3-yl)-N-((5-(pyridin-3-yl)-1,3,4-thiadiazol-2-yl)methyl)-1H-1,2,3-triazole-4-carboxamide], the EC50 amounted to 480 nM.

For the molecule `Cc1ccc(-n2cc(C(=O)NCc3nnc(-c4ccncc4)s3)nn2)c(C)n1` [Example 265, 1-(2,6-dimethylpyridin-3-yl)-N-((5-(pyridin-4-yl)-1,3,4-thiadiazol-2-yl)methyl)-1H-1,2,3-triazole-4-carboxamide], the EC50 was 16 nM.

On to `Cc1ccc(-n2cc(C(=O)NCc3cc(-c4ccncc4)on3)nn2)c(C)n1` [Example 266, 1-(2,6-dimethylpyridin-3-yl)-N-((5-(pyridin-4-yl)isoxazol-3-yl)methyl)-1H-1,2,3-triazole-4-carboxamide], for which the concentration for a half-maximal effect (EC50) is 26 nM.

Consider `Cc1ccc(-n2cc(C(=O)NCc3nnc(-c4ccccc4)s3)nn2)cn1` [Example 267, 1-(6-methylpyridin-3-yl)-N-((5-phenyl-1,3,4-thiadiazol-2-yl)methyl)-1H-1,2,3-triazole-4-carboxamide], for which the EC50 stood at 145 nM.

As for `O=C(NCc1nnc(-c2ccccc2)s1)c1cn(C2CC2)nn1` [Example 268, 1-cyclopropyl-N-((5-phenyl-1,3,4-thiadiazol-2-yl)methyl)-1H-1,2,3-triazole-4-carboxamide], the EC50 worked out at 8 nM.

In the case of `CC(C)n1cc(C(=O)NCc2nnc(-c3ccncc3)s2)nn1` [Example 269, 1-isopropyl-N-((5-(pyridin-4-yl)-1,3,4-thiadiazol-2-yl)methyl)-1H-1,2,3-triazole-4-carboxamide], the EC50 was determined as 10 nM.

`Cc1cnc(-n2cc(C(=O)NCc3nnc(-c4ccccc4)s3)nn2)c(C)n1` [Example 270, 1-(3,5-dimethylpyrazin-2-yl)-N-((5-phenyl-1,3,4-thiadiazol-2-yl)methyl)-1H-1,2,3-triazole-4-carboxamide]: the EC50 stood at 20 nM.

In the case of `CC(C)(C(N)=O)n1cc(C(=O)NCc2cc(-c3ccccc3)on2)nn1` [Example 271, 1-(1-amino-2-methyl-1-oxopropan-2-yl)-N-((5-phenylisoxazol-3-yl)methyl)-1H-1,2,3-triazole-4-carboxamide], the EC50 came to 27 nM.

Take `O=C(NCc1nnc(-c2ccccc2)s1)c1cn(C(F)F)nn1` [Example 272, 1-(difluoromethyl)-N-((5-phenyl-1,3,4-thiadiazol-2-yl)methyl)-1H-1,2,3-triazole-4-carboxamide]: the EC50 was 12 nM.

As for `Cc1ccc(-n2cc(C(=O)NCc3cc(-c4nccs4)on3)nn2)c(C)n1` [Example 273, 1-(2,6-dimethylpyridin-3-yl)-N-((5-(thiazol-2-yl)isoxazol-3-yl)methyl)-1H-1,2,3-triazole-4-carboxamide], the EC50 is 511 nM.

`O=C(NCc1nnc(-c2ccccc2)s1)c1cn(C(F)(F)F)nn1` [Example 274, N-((5-phenyl-1,3,4-thiadiazol-2-yl)methyl)-1-(trifluoromethyl)-1H-1,2,3-triazole-4-carboxamide]: the 50% effective concentration (EC50) is 31 nM.

For `Cc1nc(C2COC2)ccc1-n1cc(C(=O)NCc2nnc(-c3ccccc3)s2)nn1` [Example 277, 1-(2-methyl-6-(oxetan-3-yl)pyridin-3-yl)-N-((5-phenyl-1,3,4-thiadiazol-2-yl)methyl)-1H-1,2,3-triazole-4-carboxamide], the EC50 turned out to be 179 nM.

For `Cc1ccc(-n2cc(C(=O)NCc3nnc(-c4ccccc4)s3)nn2)c(Cl)n1` [Example 278, 1-(2-chloro-6-methylpyridin-3-yl)-N-((5-phenyl-1,3,4-thiadiazol-2-yl)methyl)-1H-1,2,3-triazole-4-carboxamide], the EC50 was 15 nM.

As for `Cc1ccc(-n2cc(C(=O)NCc3nnc(-c4ccccc4)s3)nn2)c(Br)n1` [Example 279, 1-(2-bromo-6-methylpyridin-3-yl)-N-((5-phenyl-1,3,4-thiadiazol-2-yl)methyl)-1H-1,2,3-triazole-4-carboxamide], the EC50 is 8 nM.

In the case of `Cc1ncc(-n2cc(C(=O)NCc3nnc(-c4ccccc4)s3)nn2)c(C)n1` [Example 280, 1-(2,4-dimethylpyrimidin-5-yl)-N-((5-phenyl-1,3,4-thiadiazol-2-yl)methyl)-1H-1,2,3-triazole-4-carboxamide], the EC50 is 859 nM.

On to `O=C(NCc1nnc(-c2ccccc2)s1)c1cn([C@H]2C[C@H](O)C2)nn1` [Example 281], for which the EC50 came out at 11 nM.

On to `O=C(NCc1nnc(-c2ccccc2)s1)c1cn([C@H]2C[C@@H](O)C2)nn1` [Example 282], for which the concentration giving a half-maximal response (EC50) is 5 nM.

For the molecule `Cc1ccc(-c2cc(C(=O)NCc3nnc(-c4ccccc4)s3)on2)c(C)n1` [Example 283, 3-(2,6-dimethylpyridin-3-yl)-N-((5-phenyl-1,3,4-thiadiazol-2-yl)methyl)isoxazole-5-carboxamide], the EC50 was 165 nM.

In the case of `O=C(NCc1cc(-c2ccncc2)no1)c1cn(C2CC2)nn1` [Example 284, 1-cyclopropyl-N-((3-(pyridin-4-yl)isoxazol-5-yl)methyl)-1H-1,2,3-triazole-4-carboxamide], the EC50 was found to be 74 nM.

For `O=C(NCc1nnc(-c2ccccc2)s1)c1cn(-c2cn[nH]c2)nn1` [Example 287, N-((5-phenyl-1,3,4-thiadiazol-2-yl)methyl)-1-(1H-pyrazol-4-yl)-1H-1,2,3-triazole-4-carboxamide], the EC50 came to 9 nM.

Take `Cn1cc(-n2cc(C(=O)NCc3nnc(-c4ccccc4)s3)nn2)cn1` [Example 288, 1-(1-methyl-1H-pyrazol-4-yl)-N-((5-phenyl-1,3,4-thiadiazol-2-yl)methyl)-1H-1,2,3-triazole-4-carboxamide]: the EC50 was 39 nM.

Take `Cn1nnc(C(=O)NCc2nnc(-c3ccccc3)s2)c1F` [Example 289, 5-fluoro-1-methyl-N-((5-phenyl-1,3,4-thiadiazol-2-yl)methyl)-1H-1,2,3-triazole-4-carboxamide]: the EC50 worked out at 301 nM.
